# Results taken from patent US8349896B2, “Aspirin-triggered lipid mediators” (The Brigham and Womens's Hospital, Inc., priority 2000, dated 2013).
# pIC50: −log10 of the molar value. Read-outs that look alike come from different tables or passages of the source.
# Tests used:
# [1] = target: T1, recombinant human LTB4 receptor (Homo sapiens, UniProt Q15722); assay: [3H]LTB4 competition binding, HEK-293 cells stably expressing receptor; conditions: HEK293 cells
# T1 construct: expressed in transfected cells
# T1 sequence (Q15722 whole entry): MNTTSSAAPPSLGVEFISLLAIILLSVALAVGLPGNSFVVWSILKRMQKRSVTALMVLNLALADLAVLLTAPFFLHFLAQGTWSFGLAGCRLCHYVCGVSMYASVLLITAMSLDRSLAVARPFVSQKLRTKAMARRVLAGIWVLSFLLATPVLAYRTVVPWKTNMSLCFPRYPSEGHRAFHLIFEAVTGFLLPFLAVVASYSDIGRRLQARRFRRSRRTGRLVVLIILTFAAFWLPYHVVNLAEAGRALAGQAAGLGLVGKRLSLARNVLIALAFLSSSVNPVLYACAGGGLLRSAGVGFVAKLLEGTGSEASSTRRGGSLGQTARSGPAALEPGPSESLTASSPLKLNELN
# human PMN = assay: LTB4-stimulated PMN transendothelial migration; type: cell-based; conditions: for potency relative to the compounds derived from EPA: similar to results of FIGS. 9A (transmigration) and 9C (air pouch), no data shown; for pIC50: human PMN, FIG. 9A; for rank order of potency, inhibition of PMN migration: tested in parallel for direct comparison
# Description: Human PMNs were freshly isolated from venous blood of healthy volunteers (that declined taking medication for 2 wk before donation; Brigham and Women's Hospital protocol no. 88-02642) by Ficoll gradient and enumerated. Human umbilical vein or microvascular ECs (HUVECs or HMVECs, respectively) were cultured for transendothelial migration (Reference 10), HMVEC monolayers (one, two, or three passages) were seeded (−2×10^5 cells/cm^2) on polycarbonate permeable supports precoated with 0.1% gelatin for incubations with NSAIDs and PUFA.
# [2] = system: PMN infiltration into murine dorsal air pouches; assay: TNF-α induced leukocyte/PMN infiltration into murine dorsal air pouch; type: in vivo, FVB mice; conditions: 100 ng intravenously into tail; TNF-α 100 ng/pouch; lavage at 4 h
# Description: Inflammatory exudates were initiated with intrapouch injection of TNF-α (R&D Systems) into 6 d dorsal air pouches with (Reference 16) 6-8-wk-old male FVB mice (fed standard rodent diet 5001 containing 0.26% n-3 fatty acids) followed by ASA (500 μg) at 3.5 h and 300 μg C20:5/pouch at 4 h. At 6 h, pouches were lavaged (3 ml saline), and exudate cells were enumerated and activated 94 μM A23187, 37° C., 20 min). Inhibition of TNF-α-stimulated (100 ng/pouch, FVB strain) PMN infiltration with intravenous tail injection of either 18 R-hydroxyeicosapentaenoic acid (HEPE), 5, 12, 18R-HEPE, or 15-epi-LXA, analogue was determined (Reference 16) with pouch lavages taken at 4 h.
# Recombinant Human COX-2 = target: T2, Recombinant Human COX-2 (Homo sapiens, UniProt P35354); assay: Conversion of PUFA to hydroxy compounds by recombinant COX-2 incubated with NSAID; type: biochemical; conditions: for 11R-HEPE, conversion of n-3 C20:5 / 15R-HEPE, conversion of n-3 C20:5 / 18R-HEPE, conversion of n-3 C20:5: Table 2, mean amount +/− SEM
# T2 construct: host or cells: Sf9 insect cells, baculovirus; microsomal fractions
# T2 sequence (P35354 18-604): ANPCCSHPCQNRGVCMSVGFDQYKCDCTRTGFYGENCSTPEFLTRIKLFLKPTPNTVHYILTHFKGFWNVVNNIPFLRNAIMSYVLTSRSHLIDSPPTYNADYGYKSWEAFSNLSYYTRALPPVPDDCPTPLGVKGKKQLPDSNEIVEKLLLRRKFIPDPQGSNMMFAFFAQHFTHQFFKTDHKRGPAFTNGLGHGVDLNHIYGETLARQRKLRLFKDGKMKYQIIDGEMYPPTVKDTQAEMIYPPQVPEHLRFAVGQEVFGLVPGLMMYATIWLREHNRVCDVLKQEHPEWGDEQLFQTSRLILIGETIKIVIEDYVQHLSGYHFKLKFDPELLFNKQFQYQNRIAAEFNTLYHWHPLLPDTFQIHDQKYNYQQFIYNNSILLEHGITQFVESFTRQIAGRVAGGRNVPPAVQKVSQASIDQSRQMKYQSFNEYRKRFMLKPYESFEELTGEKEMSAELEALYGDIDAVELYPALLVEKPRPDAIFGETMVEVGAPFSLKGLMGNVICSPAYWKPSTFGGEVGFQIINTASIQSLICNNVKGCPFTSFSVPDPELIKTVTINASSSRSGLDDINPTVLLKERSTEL
# Description: Human recombinant COX-2 (a gift from Dr. R. A. Copeland, DuPont Merck, Wilmington, Del.) was overexpressed in […] (American Type Culture Collection) with microsomal fractions (˜8 μl) suspended in Tris (100 mM, pH 8.0) as in Reference 21. George, H. J., D. E. Van Dyk, R. A. Straney, J. M. Trzaskos, and R. A. Copeland. 1996. Expression purification and characterization of recombinant human inducible prostaglandin G/H synthase from baculovirus-infected insect cells. Protein Expres. Purif. 7:19-26. NSAIDs were incubated (i.e., ASA ˜1 mM) at 37° C. for 30 min before addition of PUFA (20 μM), and conversions were also monitored using 1-^14C-labeled C20:4 (See FIGS. 2A and 2B) or C20:5 (NEN Life Science Products) (See FIGS. 2C and 2D).
# [3] = PUFA 20 μM, ASA ~1 mM or NS398 100 uM, mean ± SEM
# [4] = PUFA 20 μM, ASA ~1 mM, mean ± SEM
# [5] = Table 1, PUFA 20 μM, ASA ~1 mM or NS398 100 uM, mean ± SEM
compound,measurement,setting,value
CC/C=C\C/C=C\C[C@@H](O)/C=C/C=C/C=C\[C@@H](O)CCCC(=O)O [LTB5],pIC50,[1],6.30
CC/C=C\C=C\C(O)C/C=C\C/C=C\C/C=C\C/C=C\CCC(=O)O (stereo not drawn) [16-hydroxy-DHA],potency relative to the compounds derived from EPA,human PMN,potencies equivalent to those described above for the compounds derived from EPA
CC/C=C\C/C=C\C=C\C(O)C/C=C\C/C=C\C/C=C\CCC(=O)O (stereo not drawn) [13-hydroxy-DHA],potency relative to the compounds derived from EPA,human PMN,potencies equivalent to those described above for the compounds derived from EPA
"CC[C@@H](O)/C=C/C=C\C/C=C\C/C=C\C/C=C\CCCC(=O)O [Compound 18R-HEPE, 18R-hydroxyeicosapentaenoic acid]",inhibition of PMN infiltration into murine dorsal air pouches (in words),[2],some activity in vivo
same,pIC50,"human PMN; read-out: IC50, inhibition of LTB4-stimulated PMN transendothelial migration",< 6.00
same,"rank order of potency, inhibition of PMN migration",human PMN,"15-epi-LXA4 stable analogue >5,12,18R-tri-HEPE >18R-HEPE"
same,competition with 3H-LTB4 (in words),[1],did not
CCC(O)/C=C/C=C\C/C=C\C/C=C\C/C=C\C/C=C\CCC(=O)O (stereo not drawn) [20-hydroxy-DHA],potency relative to the compounds derived from EPA,human PMN,potencies equivalent to those described above for the compounds derived from EPA
CC/C=C\CC(O)/C=C/C=C\C/C=C\C/C=C\C/C=C\CCC(=O)O (stereo not drawn) [17-hydroxy-DHA],potency relative to the compounds derived from EPA,human PMN,potencies equivalent to those described above for the compounds derived from EPA
19-hydroxy-DHA,potency relative to the compounds derived from EPA,human PMN,potencies equivalent to those described above for the compounds derived from EPA
"CC[C@@H](O)/C=C/C=C\C[C@@H](O)/C=C/C=C/C=C\[C@@H](O)CCCC(=O)O [5,12,18R-triHEPE]",inhibition of PMN infiltration into murine dorsal air pouches (in words),[2],potent inhibitor of PMN infiltration
same,pIC50,"human PMN; read-out: apparent IC50, inhibition of LTB4-stimulated PMN transendothelial migration",7.30 to 8.30
same,"rank order of potency, inhibition of PMN migration",human PMN,"15-epi-LXA4 stable analogue >5,12,18R-tri-HEPE >18R-HEPE"
same,pIC50,[1],6.30
CC(=O)Nc1ccc(O)cc1 [Acetaminophen],"11R-HEPE, conversion of n-3 C20:5",Recombinant Human COX-2,6.7 ± 3.0 ng
same,"15R-HEPE, conversion of n-3 C20:5",Recombinant Human COX-2,4.6 ± 1.2 ng
same,"18R-HEPE, conversion of n-3 C20:5",Recombinant Human COX-2,5.5 ± 2.4 ng
same,reduction of levels of 15R- and 18R-HEPE versus absence of inhibitors,"Recombinant Human COX-2; recombinant COX-2 and C20:5, concentrations as high as 2 mM, n=3",three to eight times
"O=C(O)CCC[C@H](O)[C@H](O)/C=C/C=C/C=C\C=C\[C@H](O)COc1ccc(F)cc1 [15-epi-LXA4 stable analogue, 15(5)-16(para-fluoro)-phenoxy-LXA4]",inhibition of PMN infiltration into murine dorsal air pouches (in words),[2],potent inhibitor of PMN infiltration
same,"rank order of potency, inhibition of PMN migration",human PMN,"15-epi-LXA4 stable analogue >5,12,18R-tri-HEPE >18R-HEPE"
"CC(=O)Oc1ccccc1C(=O)O [ASA, aspirin]",increase in 18R-HEPE on ASA acetylation of COX-2,Recombinant Human COX-2; C20:5,approximately twofold increase
same,reduction in 11R-HEPE on ASA acetylation of COX-2,Recombinant Human COX-2; C20:5,> 85%
same,11R-HETE (ω-9) generated from C20:4,Recombinant Human COX-2; [3],1.4 ± 1.6 ng/incubation
same,15R-HETE (ω-5) generated from C20:4,Recombinant Human COX-2; [3],234.0 ± 112.5 ng/incubation
same,9-HODE (ω-9) generated from C18:2,Recombinant Human COX-2; [4],25.2 ± 17.8 ng/incubation
same,13-HODE (ω-5) generated from C18:2,Recombinant Human COX-2; [4],2.9 ± 0.6 ng/incubation
same,11R-HEPE (ω-9) generated from C20:5,Recombinant Human COX-2; [5],5.4 ± 3.3 ng/incubation
same,15R-HEPE (ω-5) generated from C20:5,Recombinant Human COX-2; [5],16.8 ± 5.8 ng/incubation
same,18R-HEPE (ω-2) generated from C20:5,Recombinant Human COX-2; [5],16.2 ± 3.3 ng/incubation
same,"11R-HEPE, conversion of n-3 C20:5",Recombinant Human COX-2,5.5 ± 2.3 ng
same,"15R-HEPE, conversion of n-3 C20:5",Recombinant Human COX-2,8.0 ± 5.6 ng
same,"18R-HEPE, conversion of n-3 C20:5",Recombinant Human COX-2,12.2 ± 4.6 ng
CC/C=C\C/C=C\CC(O)/C=C/C=C\C/C=C\C/C=C\CCC(=O)O (stereo not drawn) [14-hydroxy-DHA],potency relative to the compounds derived from EPA,human PMN,potencies equivalent to those described above for the compounds derived from EPA
